According to patent publication US7691563B2, “Method for alleviating pain using sphingosine-1-phosphate and related compounds, and assays for identifying such compounds” (Sanofi-Aventis Pharma GmbH, priority 2003, dated 2010):

Assays:
adult rats = test: Formalin test after intrathecal application of S1P; assay type: in vivo, rat; settings: 20 μl of 10 μM S1P intrathecal 15 minutes prior to formalin; 20 to 35 minutes after formalin; versus PBS/DMSO
Experimental: FIG. 24: Pain behaviour of adult rats in the formalin assay with and without application of S1P over a period of 60 minutes. 20 μl of 10 μM S1P or 20 μl PBS/DMSO were given to adult rats by intrathecal application 15 minutes prior to formalin injection. After formalin injection, flinches were counted in 5 minute intervals over a time-period of 60 minutes. The mean of six animal experiments+SEM is shown.
To determine the analgesic effect of S1P, S1P was delivered to the spinal chord by intrathecal application.
Rats were anesthetized with ketamine (60 mg/kg i.p.) and midazolam (0.5-1 mg/kg i.p.). The skin was incised above the vertebral column from vertebrae Th13 up to L3. Muscle tissue around L2-3 was cleared away. The processus spinosus of L3 was removed and a laminectomy was done at L2. Polyethylene catheters (ID 0.28 mm, OD 0.61 mm) were then inserted into the peridural space so that the tip of the catheter reached Th9-10. […]
Within 15 min after stopping the infusion the formalin test was performed. […] Flinches were counted in one minute intervals up to 60 min starting right after formalin injection. […]
20 μl of 10 μM S1P or 20 μl PBS/DMSO were given to adult rats by intrathecal application 15 minutes prior to the formalin injection. Then, flinches were counted in 5 minute intervals over a period of 60 minutes.

ERK1/2 = ERK1/2 phosphorylation in HeLa cells (Western blot); assay type: cell-based, human; settings: HeLa cells incubated with S1P; anti-active ERK and anti-phosphoTyr183 ERK antibodies
Experimental: Panel C: Western Blot analysis of HeLa cells treated with 0.5 μM S1P for 10 minutes. Prior incubation with S1P the cells were incubated for 20 minutes with 10 μM U73122, BAPTA-AM or U0126. Cells were harvested in boiling Laemmli buffer and subjected to Western analyses using anti-active ERK1/2 antibody. Anti-Hsp70 antibody was used as loading control.

SMILES: CCCCCCCCCCCCC/C=C/[C@@H](O)[C@@H](N)COP(=O)(O)O [S1P, Sphingosine-1-Phosphate]
- number of nociceptive responses (flinches), phase 2A (adult rats): significant decrease
- ERK1/2 phosphorylation (ERK1/2): detectable
